Read-outs that look alike come from different tables or passages of the source.
Assays:
HT29 cells = assay: cells; details: for CC50: read-out: LC50; for IC (TGI): read-out: TGI
Source text: (§1) The aim of this assay is to evaluate the in vitro cytostatic (ability to delay or arrest tumor cell growth) or cytotoxic (ability to kill tumor cells) activity of the samples being tested.
(§2) A colorimetric assay, using sulforhodamine B (SRB) reaction has been adapted to provide a quantitative measurement of cell growth and viability (following the technique described by Skehan et al. J. Natl. Cancer Inst. 1990, 82, 1107-1112). Another colorimetric assay based on 3-(4,5-Dimethylthiazol-2-yl)-2,5-diphenyltetrazolium bromide (MTT) reduction to a purple formazan has been also used to assess the antiproliferative activity (following the technique described by Mosmann et al. J. Immunol. Meth. 1983, 65, 55-63).
(§3) These forms of assays employ 96-well cell culture microplates following the standards of the American National Standards Institute and the Society for Laboratory Automation and Screening (ANSI SLAS 1-2004 (R2012) Oct. 12, 2011. All the cell lines used in this study were obtained from the American Type Culture Collection (ATCC) and derive from different types of human cancer.
(§4) A549, HT29, MDA-MB-231 and PSN1 cells were maintained in Dulbecco's Modified Eagle Medium (DMEM) while PC-3 and 22Rv1 cells were maintained in Roswell Park Memorial Institute Medium (RPMI). All cell lines were supplemented with 10% Fetal Bovine Serum (FBS), 2 mM L-glutamine, 100 U/mL penicillin, and 100 […] at 37° C., 5% CO2 and 98% humidity. For the experiments, cells were harvested from subconfluent cultures using trypsinization and resuspended in fresh medium before counting and plating.
(§5) A549, HT29, MDA-MB-231 and PSN1 cells were seeded in 96 well microtiter plates, at 5000 cells per well in aliquots of 150 μL, and allowed to attach to the plate surface for 18 hours (overnight) in drug free medium. After that, one control (untreated) plate of each cell line was fixed (as described below) and used for time zero reference value. Culture plates were then treated with test compounds (50 μL aliquots of 4× stock solutions in complete culture medium plus 4% DMSO) using ten 2/5 serial dilutions (concentrations ranging from 10 to 0.003 μg/mL) and triplicate cultures (1% final concentration in DMSO). After 72 hours treatment, the antitumor effect was measured by using the SRB methodology: Briefly, cells were washed twice with PBS, fixed for 15 min in 1% glutaraldehyde solution at room temperature, rinsed twice in PBS, and stained in 0.4% SRB solution for 30 min at room temperature. Cells were then rinsed several times with 1% acetic acid solution and air-dried at room temperature.
(§6) Effects on cell growth and survival were estimated by applying the NCI algorithm (Boyd M R and Paull K D. Drug Dev. Res. 1995, 34, 91-104). The values obtained in triplicate cultures were fitted by nonlinear regression to a four-parameters logistic curve by nonlinear regression analysis.

PSN1 cells = assay: cells; details: for CC50: read-out: LC50; for IC (TGI): read-out: TGI
Source text: as §1, §2, §3, §4, §5, §6

A549 cells = assay: cells; details: for CC50: read-out: LC50; for IC (TGI): read-out: TGI
Source text: as §1, §2, §3, §4, §5, §6

MDA-MB-231 cells = assay: cells; details: for CC50: read-out: LC50; for IC (TGI): read-out: TGI
Source text: as §1, §2, §3, §4, §5, §6

H526 tumors = assay: In vivo xenograft, human lung (SCLC) H526; details: iv weekly, 47-R 0.1 mg/Kg, Compound D 0.5 mg/Kg
Method: (§7) Female athymic nu/nu mice (Harlan Laboratories Models, S. L. Barcelona, Spain or Envigo, Spain) were utilized for all experiments. Animal were housed in individually ventilated cages Sealsafe® Plus, Techniplast S.P.A.), up to ten per cage on a 12-hour light-dark cycle at 21-23° C. and 40-60% humidity. Mice were allowed free access to irradiated standard rodent diet (Tecklad 2914C) and sterilized water. Animals were acclimated for at least 5 days prior to tumor implantation with a tumor cell suspension.
H526 cells were grown as a suspension and maintained by addition of fresh medium, as the cell density increases, every 2 to 3 days. Every week, culture was reestablished by centrifugation of the suspension with subsequent resuspension in fresh medium at a concentration of 1×10^5 cell/mL. Each animal was subcutaneously implanted (on the right flank using 26 G needle and a 1 cc syringe) at 4-6 weeks of age with 5×10^6 H526 cells suspended in 0.05 mL of a solution consisting of 50% Matrigel® (Corning Incorporated Life Sciences) and 50% medium without serum or antibiotics.
(§8) Treatment tolerability was assessed by monitoring body weight evolution, clinical signs of systemic toxicity, as well as evidences of local damage in the injection site.
(§9) Treatments producing >20% lethality and/or 20% net body weight loss were considered toxic.

H82 tumors = assay: In vivo xenograft, human lung (SCLC) H82; details: iv weekly, 47-R 0.1 mg/Kg, Compound D 0.5 mg/Kg
Method: as §7
H82 cells were grown as a suspension and maintained by addition of fresh medium, as the cell density increases, every 2 to 3 days. Every week, culture was reestablished by centrifugation of the suspension with subsequent resuspension in fresh medium at a concentration of 1×10^5 cell/ml. Animals were subcutaneously implanted (on the right flank using 26 G needle and a 1 cc syringe) at 4-6 weeks of age with 5×10^6 H82 cells, suspended in 0.05 mL of a solution consisting of 50% Matrigel® (Corning Incorporated Life Sciences) and 50% medium without serum or antibiotics.
as §8
In xenograft studies with other cell lines: • Tumor volume was calculated using the equation (a·b^2)/2, where a: length (longest diameter) and b: width (shortest diameter) were measured in mm by using digital caliper (Fowler Sylvac, S235PAT).
as §9
Tables and figures summarize the data obtained from complete experimental groups, i.e. those groups keeping the initial number of animals, n=8-10.

[1] = Homo sapiens, PSN1, 72 h, PSN1, 72 hours treatment, SRB
[2] = MDA-MB-231, 72 hours treatment, SRB

Structure (SMILES)	GI50 (HT29 cells; Homo sapiens, HT-29, 72 h) [nM]	CC50 (HT29 cells; Homo sapiens, HT-29, 72 h) [nM]	IC (TGI) (HT29 cells; Homo sapiens, HT-29, 72 h) [nM]	GI50 (PSN1 cells; Homo sapiens, PSN1, 72 h) [nM]	CC50 (PSN1 cells; Homo sapiens, PSN1, 72 h) [nM]	IC (TGI) (PSN1 cells; Homo sapiens, PSN1, 72 h) [nM]	GI50 (A549 cells; Homo sapiens, A549, 72 h) [nM]	CC50 (A549 cells; Homo sapiens, A549, 72 h) [nM]	IC (TGI) (A549 cells; Homo sapiens, A549, 72 h) [nM]	GI50 (MDA-MB-231 cells; Homo sapiens, MDA-MB-231, 72 h) [nM]	CC50 (MDA-MB-231 cells; Homo sapiens, MDA-MB-231, 72 h) [nM]	IC (TGI) (MDA-MB-231 cells; Homo sapiens, MDA-MB-231, 72 h) [nM]	further results
COc1ccc2[nH]c3c(c2c1)C[C@H](C(=O)O)N[C@]31CS[C@@H]2c3c(OC(C)=O)c(C)c4c(c3[C@H](COC1=O)N1[C@@H]2[C@H]2c3c(cc(C)c(OC)c3O)C[C@@H]([C@@H]1O)N2C)OCO4 [Compound 29-R]	30.2	> 1210	32.6	30.2	35	31.4	90.5	> 1210	193	16.9	157	27.7	–
COc1ccc2[nH]c3c(c2c1)C[C@@H](C(=O)O)N[C@]31CS[C@@H]2c3c(OC(C)=O)c(C)c4c(c3[C@H](COC1=O)N1[C@@H]2[C@H]2c3c(cc(C)c(OC)c3O)C[C@@H]([C@@H]1O)N2C)OCO4 [Compound 29-S]	362	832	531	386	688	507	615	> 1210	> 1210	217	688	374	–
COc1c(C)cc2c(c1O)[C@@H]1[C@@H]3[C@@H]4SC[C@]5(NCCc6c5oc5ccccc65)C(=O)OC[C@@H](c5c6c(c(C)c(OC(C)=O)c54)OCO6)N3[C@@H](C#N)[C@H](C2)N1C [Compound 31]	10.5	> 131	15.7	6.8	43.1	15.7	19.6	23.5	20.9	8.89	35.3	17	–
COc1ccc2oc3c(c2c1)CCN[C@]31CS[C@@H]2c3c(OC(C)=O)c(C)c4c(c3[C@H](COC1=O)N1[C@@H]2[C@H]2c3c(cc(C)c(OC)c3O)C[C@@H]([C@@H]1C#N)N2C)OCO4 [Compound 34]	54.1	125	85.5	54.1	> 126	59.1	59.1	> 126	80.5	45.3	112	76.7	–
COc1c(C)cc2c(c1O)[C@@H]1[C@@H]3[C@@H]4SC[C@]5(N[C@@H](CO)Cc6c5oc5ccccc65)C(=O)OC[C@@H](c5c6c(c(C)c(OC(C)=O)c54)OCO6)N3[C@@H](C#N)[C@H](C2)N1C [Compound 38-R]	0.541	> 126	0.591	–	1.76	0.994	0.654	> 126	1.04	0.453	2.01	0.843	GI50 (PSN1 cells; [1]): 0.654 nM
COc1c(C)cc2c(c1O)[C@@H]1[C@@H]3[C@@H]4SC[C@]5(N[C@H](CO)Cc6c5oc5ccccc65)C(=O)OC[C@@H](c5c6c(c(C)c(OC(C)=O)c54)OCO6)N3[C@@H](C#N)[C@H](C2)N1C [Compound 38-S]	4.53	> 126	7.05	–	15.1	8.18	8.05	9.44	8.55	2.52	7.8	4.28	GI50 (PSN1 cells; [1]): 5.03 nM
COc1c(C)cc2c(c1O)[C@@H]1[C@@H]3[C@@H]4SC[C@]5(N[C@@H](CN)Cc6c5oc5ccccc65)C(=O)OC[C@@H](c5c6c(c(C)c(OC(C)=O)c54)OCO6)N3[C@@H](O)[C@H](C2)N1C [Compound 47-R]	–	> 127	–	–	3.31	–	–	–	–	–	2.55	–	Median Tumor Volume (H526 tumors; Table 56, Day 0): 211.5 mm^3; Median Tumor Volume (H526 tumors; Table 56, Day 2): 367.9 mm^3; Median Tumor Volume (H526 tumors; Table 56, Day 4): 583.7 mm^3; Median Tumor Volume (H526 tumors; Table 56, Day 7): 941.7 mm^3; Median Tumor Volume (H526 tumors; Table 56, Day 9): 1305.2 mm^3; Median Tumor Volume (H526 tumors; Table 56, Day 11): 1484.7 mm^3; Median Tumor Volume (H526 tumors; Table 56, Day 14): 2025.0 mm^3; Median Tumor Volume (H82 tumors; Table 57, Day 0): 169.0 mm^3; Median Tumor Volume (H82 tumors; Table 57, Day 2): 371.6 mm^3; Median Tumor Volume (H82 tumors; Table 57, Day 5): 888.8 mm^3; Median Tumor Volume (H82 tumors; Table 57, Day 7): 1314.2 mm^3; Median Tumor Volume (H82 tumors; Table 57, Day 9): 1811.0 mm^3; Median Tumor Volume (H82 tumors; Table 57, Day 12): 2055.4 mm^3
COc1c(C)cc2c(c1O)[C@@H]1[C@@H]3[C@@H]4SC[C@]5(N[C@H](CN)Cc6c5oc5ccccc65)C(=O)OC[C@@H](c5c6c(c(C)c(OC(C)=O)c54)OCO6)N3[C@@H](O)[C@H](C2)N1C [Compound 47-S]	–	> 127	–	–	12.7	–	–	> 127	–	–	16.6	–	–
COc1ccc2[nH]c3c(c2c1)CCNC31CSC2c3c(OC(C)=O)c(C)c4c(c3C(COC1=O)N1C(C#N)C3Cc5cc(C)c(OC)c(O)c5C(C21)N3C)OCO4 (centres unmarked) [E]	–	–	–	–	–	–	–	–	–	–	–	–	GI50 (HT29 cells; HT29, 72 hours treatment, SRB): 3.15 nM; TGI (HT29 cells; HT29, 72 hours treatment, SRB): 3.40E−09 Molar; CC50 (HT29 cells; HT29, 72 hours treatment, SRB): > 126 nM; GI50 (PSN1 cells; PSN1, 72 hours treatment, SRB): 2.77 nM; TGI (PSN1 cells; PSN1, 72 hours treatment, SRB): 4.53E−09 Molar; CC50 (PSN1 cells; PSN1, 72 hours treatment, SRB): 8.94 nM; GI50 (A549 cells; A549, 72 hours treatment, SRB): 3.28 nM; TGI (A549 cells; A549, 72 hours treatment, SRB): 3.40E−09 Molar; CC50 (A549 cells; A549, 72 hours treatment, SRB): 4.41 nM; GI50 (MDA-MB-231 cells; [2]): 2.27 nM; TGI (MDA-MB-231 cells; [2]): 3.78E−09 Molar; CC50 (MDA-MB-231 cells; [2]): 7.43 nM

Reference: patent US10538535B2, “Antitumoral compounds” (priority 2017, dated 2020)
